Where two headings read alike, the source gives them in different places.
Columns and labels:
[1] = biological target: MCH-1R (UniProt Q99705); experiment: MCH-1R competition binding assay
Experimental: In vitro binding and function assays are performed on membranes derived from cells or tissues expressing endogenous MCH1R. Competition binding assays are performed to identify high affinity compounds. Briefly, either radiolabeled or europium labeled MCH with varying concentrations of competitor compound which are incubated with membranes expressing the receptor. Rat brain membrane or cell lines, including but not limited to human Kelly neuroblastoma cells, A-431 epidermoid cells, and rat PC-12 cells are known to express endogenous MCH1R and are used in the assay. Binding is allowed to proceed until equilibrium is reached then bound labeled MCH is separated from free MCH by capturing membranes onto a filter. The filters are washed to remove loosely associated MCH and labeled MCH is quantified. Data is analyzed and IC50 and Ki are calculated to determine compound affinity.

[2] = biological target: T1, 5-HT2c receptor (Homo sapiens, UniProt P28335); experiment: 5-HT2c receptor binding assay (3H-mesulergine competition)
T1 construct: purchased Perkin-Elmer or Euroscreen (named only as possible suppliers)
T1 sequence (P28335 33-458): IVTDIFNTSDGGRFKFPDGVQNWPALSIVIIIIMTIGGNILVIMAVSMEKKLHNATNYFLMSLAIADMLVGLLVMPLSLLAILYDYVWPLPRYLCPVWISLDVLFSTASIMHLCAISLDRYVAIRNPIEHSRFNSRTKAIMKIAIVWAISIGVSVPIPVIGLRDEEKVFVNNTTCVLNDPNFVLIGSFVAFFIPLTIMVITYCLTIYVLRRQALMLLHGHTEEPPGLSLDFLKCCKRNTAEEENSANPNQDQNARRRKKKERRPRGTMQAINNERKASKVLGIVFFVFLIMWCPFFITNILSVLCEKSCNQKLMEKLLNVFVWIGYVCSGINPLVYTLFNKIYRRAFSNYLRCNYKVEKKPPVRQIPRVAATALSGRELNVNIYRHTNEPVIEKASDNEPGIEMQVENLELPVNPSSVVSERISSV
Experimental: MCH antagonist compounds are evaluated for binding to the serotonin 5-HT2c receptor to determine receptor selectivity. Binding activity is assessed using a competitive assay with ^3H-mesulergine (Perkin Elmer), a 5-HT2c selective ligand, on membrane containing the 5-HT2c receptor. Briefly, 1 nM ^3H-mesulergine and varying concentrations of the compound are incubated with 5-HT2c receptor membranes, following an incubation period, the membranes are washed and ^3H-mesulergine bound to membranes is measured in a liquid scintillation counter. The amount of bound ^3H-mesulergine at the varying concentration of competitor compound is used to derive the affinity (Ki) of the compound for the 5-HT2c receptor. 5-HT2c receptor containing membranes are readily available from several companies including Perkin-Elmer and Euroscreen.

[3] = 1 nM 3H-mesulergine, read-out: Ki (nM) binding data 5-HT2C

SMILES	Ki [1]	Ki [2, 3]	Ki [2]
CS(=O)(=O)N1CCN(Cc2ccc3c(c2)CC[C@H](n2cnc4cc(-c5ccnc(Cl)c5)sc4c2=O)C3)CC1	157 nM	> 100000 nM	–
COc1ncccc1-c1cc2ncn([C@H]3CCc4cc(CN5CCN(S(C)(=O)=O)CC5)ccc4C3)c(=O)c2s1	373 nM	> 100000 nM	–
CS(=O)(=O)N1CCN(Cc2ccc3c(c2)CC[C@H](n2cnc4cc(-c5ccc(Cl)cc5Cl)sc4c2=O)C3)CC1	107 nM	> 100000 nM	–
CS(=O)(=O)N1CCN(Cc2ccc3c(c2)CC[C@H](n2cnc4cc(-c5ccc(F)cc5F)sc4c2=O)C3)CC1	7.6 nM	> 100000 nM	–
CS(=O)(=O)N1CCN(Cc2ccc3c(c2)CC[C@H](n2cnc4cc(-c5cccc(C#N)c5)sc4c2=O)C3)CC1	310 nM	> 100000 nM	–
CS(=O)(=O)N1CCN(Cc2ccc3c(c2)CC[C@H](n2cnc4cc(-c5ccc(Cl)c(Cl)c5)sc4c2=O)C3)CC1	142 nM	> 100000 nM	–
CS(=O)(=O)N1CCN(Cc2ccc3c(c2)CC[C@H](n2cnc4cc(-c5ccc(F)c(F)c5)sc4c2=O)C3)CC1	39.3 nM	> 100000 nM	–
CS(=O)(=O)N1CCN(Cc2ccc3c(c2)CC[C@H](n2cnc4cc(-c5cc(F)cc(F)c5)sc4c2=O)C3)CC1	117 nM	> 100000 nM	–
CS(=O)(=O)N1CCN(Cc2ccc3c(c2)CC[C@H](n2cnc4cc(-c5cncc(Cl)c5)sc4c2=O)C3)CC1	21 nM	–	> 100000 nM
CS(=O)(=O)N1CCN(Cc2ccc3c(c2)CC[C@H](n2cnc4cc(-c5cncc(F)c5)sc4c2=O)C3)CC1	13.4 nM	–	> 100000 nM
COc1cncc(-c2cc3ncn([C@H]4CCc5cc(CN6CCN(S(C)(=O)=O)CC6)ccc5C4)c(=O)c3s2)c1	17.9 nM	–	> 100000 nM
CS(=O)(=O)N1CCN(Cc2ccc3c(c2)CC[C@H](n2cnc4cc(-c5ccoc5)sc4c2=O)C3)CC1	733 nM	> 100000 nM	–
CS(=O)(=O)N1CCN(Cc2ccc3c(c2)CC[C@H](n2cnc4cc(-c5cccnc5)sc4c2=O)C3)CC1	752 nM	> 100000 nM	–
CS(=O)(=O)N1CCN(Cc2ccc3c(c2)CC[C@H](n2cnc4cc(-c5cccs5)sc4c2=O)C3)CC1	122 nM	> 100000 nM	–
CS(=O)(=O)N1CCN(Cc2ccc3c(c2)CC[C@H](n2cnc4cc(-c5ccsc5)sc4c2=O)C3)CC1	60 nM	> 100000 nM	–
CN(C)Cc1ccc2c(c1)CC[C@H](n1cnc3cc(-c4ccc(Cl)cc4)sc3c1=O)C2 [6-(4-Chlorophenyl)-3-((S)-6-dimethylaminomethyl-1,2,3,4-tetrahydronapthealen-2-yl)thieno[3,2-d]pyrimidin-4(3H)-one]	7.4 nM	3170 nM	–
CNCc1ccc2c(c1)CC[C@H](n1cnc3cc(-c4ccc(Cl)cc4)sc3c1=O)C2 [6-(4-Chlorophenyl)-3-((S)-6-methylaminomethyl-1,2,3,4-tetrahydronapthealen-2-yl)thieno[3,2-d]pyrimidin-4(3H)-one]	0.4 nM	2140 nM	–
CN(CCS(C)(=O)=O)Cc1ccc2c(c1)CC[C@H](n1cnc3cc(-c4ccc(Cl)cc4)sc3c1=O)C2 [6-(4-Chlorophenyl)-3-((S)-6-{[2-methanesulfonylethyl)methylamino]methyl}-1,2,3,4-tetrahydronapthealen-2-yl)thieno[3,2-d]pyrimidin-4(3H)-one]	15.8 nM	> 100000 nM	–
CS(=O)(=O)C1CCN(Cc2ccc3c(c2)CC[C@H](n2cnc4cc(-c5ccc(Cl)cc5)sc4c2=O)C3)CC1 [6-(4-Chlorophenyl)-3-[(S)-6-(4-methanesulfonylpiperidin-1-ylmethyl)-1,2,3,4-tetrahydronapthealen-2-yl}thieno[3,2-d]pyrimidin-4(3H)-one]	8.2 nM	> 100000 nM	–
O=c1c2sc(-c3ccc(Cl)cc3)cc2ncn1[C@H]1CCc2cc(CNC(CO)CO)ccc2C1 [6-(4-Chlorophenyl)-3-{(S)-6-[(2-hydroxy-1-hydroxymethylethylamino)methyl]-1,2,3,4-tetrahydronapthealen-2-yl}thieno[3,2-d]pyrimidin-4(3H)-one]	10.7 nM	> 100000 nM	–
CS(=O)(=O)CCNCc1ccc2c(c1)CC[C@H](n1cnc3cc(-c4ccc(Cl)cc4)sc3c1=O)C2 [6-(4-Chlorophenyl)-3-{(S)-6-[(2-methanesulfonyl-ethylamino)methyl]-1,2,3,4-tetrahydronapthealen-2-yl}thieno[3,2-d]pyrimidin-4(3H)-one]	22.6 nM	> 100000 nM	–
O=c1c2sc(-c3ccc(Cl)cc3)cc2ncn1[C@H]1CCc2cc(CN3CC[C@H](O)C3)ccc2C1 [6-(4-Chlorophenyl)-3-{(S)-6-[((S)-3-hydroxypyrrolidin-1-yl)methyl]-1,2,3,4-tetrahydronaphthalen-2-yl}thieno[3,2-d]pyrimidin-4(3H)-one]	24 nM	9550 nM	–
C[C@H](O)CNCc1ccc2c(c1)CC[C@H](n1cnc3cc(-c4ccc(Cl)cc4)sc3c1=O)C2 [6-(4-Chlorophenyl)-3-{(S)-6-[(S)-2-hydroxypropylaminomethyl]-1,2,3,4-tetrahydronapthealen-2-yl}thieno[3,2-d]pyrimidin-4(3H)-one]	25 nM	3080 nM	–
CC(=O)N1CCN(Cc2ccc3c(c2)CC[C@H](n2cnc4cc(-c5ccc(Cl)cc5)sc4c2=O)C3)CC1 [(S)-3-(6-((4-Acetylpiperazin-1-yl)methyl)-1,2,3,4-tetrahydronapthalen-2-yl)-6-(4-chlorophenyl)thieno[3,2-d]pyrimidine-4(3H)-one]	35 nM	14600 nM	–
CC(=O)N1CCN(Cc2ccc3c(c2)CC[C@H](n2cnc4cc(-c5ccc(C#N)cc5)sc4c2=O)C3)CC1 [(S)-3-[6-(4-Acetylpiperazin-1-ymethyl)-1,2,3,4-tetrahydronap] [(S)-3-[6-(4-Acetylpiperazin-1-ymethyl)-1,2,3,4-tetrahydronapthalen-2-yl]-6-(4-cyanophenyl)thieno[3,2-d]pyrimidin-4(3H)-one]	34 nM	–	–
CC(=O)N1CCN(Cc2ccc3c(c2)CC[C@H](n2cnc4cc(-c5ccc(F)cc5F)sc4c2=O)C3)CC1 [(S)-3-[6-(4-Acetylpiperazin-1-ymethyl)-1,2,3,4-tetrahydronapthalen-2-yl]-6-(2,4-difluorophenyl)thieno[3,2-d]pyrimidin-4(3H)-one]	8.4 nM	> 100000 nM	–
CC(=O)N1CCN(Cc2ccc3c(c2)CC[C@H](n2cnc4cc(-c5ccc(Cl)cc5Cl)sc4c2=O)C3)CC1 [(S)-3-[6-(4-Acetylpiperazin-1-ymethyl)-1,2,3,4-tetrahydronapthalen-2-yl]-6-(2,4dichlorophenyl)thieno[3,2-d]pyrimidin-4(3H)-one]	24.7 nM	2370 nM	–
CC(=O)N1CCN(Cc2ccc3c(c2)CC[C@H](n2cnc4cc(-c5ccnc(Cl)c5)sc4c2=O)C3)CC1 [(S)-3-[6-(4-Acetylpiperazin-1-ymethyl)-1,2,3,4-tetrahydronapthalen-2-yl]-6-(2-chloropyridin-4-yl)thieno[3,2-d]pyrimidin-4(3H)-one]	496 nM	> 100000 nM	–
CC(=O)N1CCN(Cc2ccc3c(c2)CC[C@H](n2cnc4cc(-c5ccc(C#N)cc5)sc4c2=O)C3)CC1 [(S)-3-[6-(4-Acetylpiperazin-1-ymethyl)-1,2,3,4-tetrahydronapthalen-2-yl]-6-(4-cyanophenyl)thieno[3,2-d]pyrimidin-4(3H)-one]	–	> 100000 nM	–

Source: patent US20070299062A1 (The Procter & Gamble Company, priority 2006, published 2007)
